Legend:
[1] = test system: human primary keratinocytes (HEKn); experiment: SA-β-Gal senescence assay in human primary keratinocytes; type: cell-based; conditions: HEKn after fifth passage; 20 μM Kaempferol, 24 hours
Protocol: FIG. 12. Identification of entescence as a non-cell autonomous senescence. (A) Effects of P2Y2 inhibition on SA-β Gal activity of human primary keratinocytes. After the fifth passages, human primary keratinocytes were cultured during 24 hours in presence or in absence of 20 μM of P2Y2 inhibitor Kaempferol. The number of SA-β Gal positive single or cannibal cells per total number of cells examined (at least 300 per well) was recorded and frequencies of SA-β Gal positive were determined. Error bars represent means±SEM (n=3; *p <0.01). (B) Effects of P2Y2 inhibition on SA-β Gal activity detected after g-irradiation or mithoxantron treatment. […] Then as described above frequencies of SA-β Gal positive were determined (means±SEM; n=3; *p <0.01). […] As previously described, the number of SA-β Gal positive single or cannibal cells per total number of cells examined (at least 300 per well) was recorded (means±SEM; n=3; *p <0.01). […] P21WAF1 expression was also analyzed using antibody against p21^WAF1 (green). […] (F-H) Effects of P2Y2 depletion on DNA damage foci formation, p21^WAF1 expression and SA-β Gal activity detected after Δ133p53. After P2Y2 depletion, the percentage of Δ133p53 depleted cells showing positivity for γ-I-H2AX^+ or p21^WAF1 expression were determined by confocal microscopy (G,H) and analyzed for p Gal activity (Means±SEM; n=3; *P <0.01). […]

[2] = test system: HCT116 cells; experiment: SA-β-Gal senescence assay in HCT116 cells; type: cell-based, human; conditions: 20 μM Kaempferol, 24 hours
Protocol: FIG. 4. Cellular cannibalism leads to senescence. (A,B) Effects of cellular cannibalism on cell proliferation. After cell sorting, cell proliferation of TP53 or Δ133TP53 knocked down and TP53 knocked out single or cannibal cells were performed during 6 days. (C-H) Effects of cellular cannibalism on senescence induction. Cannibal cells mediated by TP53 knockout or Δ133TP53 knockdown were examined in EdU incorporation assay (C,D), in DNA damage response (E,F) and in SA-β-Gal assay (G,H). (C) Determination of EdU incorporation on cannibal cells induced by Δ133TP53 knockdown, or TP53 knockout. […] The number of EdU positive single or cannibal cells per total number of cells examined (at least 300 per well) was recorded. […] (F) Quantification of DNA damage foci in single and cannibal cells after TP53 or Δ133TP53 inactivation. The percentage of γ-H2AX^+ cells or p53BP1^+ cells were determined by confocal microscopy. […] (I) p21^WAF1 expression during coculture of Tp53^+/+ or TP53^−/− cells, P21^WAF1 expression was determined by immunoblot. […] (K) Quantification of p21^WAF1 expression in single and cannibal cells after TP53 or Δ133TP53 inactivation. The percentage of […]21WAF^+ cells in cannibal cells was determined by confocal microscopy. […] P21^WAF1 expression was determined by immunoblot. […] Quantification of SA-β Gal positive cells were realized as described above (n=3; means±SEM; *P <0.01). […]

## O=c1c(O)c(-c2ccc(O)cc2)oc2cc(O)cc(O)c12 [kaempferol]
[1]
  senescence (frequency of senescent, SA-β-Gal-positive cannibal cells) during replicative stress: strongly reduced senescence
[2]
  senescence (frequency of senescent, SA-β-Gal-positive cannibal cells) after treatment with IR or with MTX: strongly reduced senescence

Source: patent US10969380B2, “Simultaneous detection of cannibalism and senescence as prognostic marker for cancer” (Institut Gustave-Roussy, priority 2012, dated 2021)
